# Results: patent US11089783B2, “2-(het)aryl-substituted fused heterocycle derivatives as pesticides” (Bayer Aktiengesellschaft, priority 2017, dated 2021)
# Columns and labels:
# Format in all cases: in vivo
# Diabrotica balteata = Diabrotica balteata drench test (DIABBA); conditions: soil, 192 h, 8 dat, read-out: % efficacy
# Method: [table] To produce an appropriate active ingredient formulation, 1 part by weight of active ingredient is mixed with the specified amounts of solvent and emulsifier and the concentrate is diluted to the desired concentration with water, it being necessary to take into account the volume of soil into which drenching is effected. It should be ensured that a concentration of 40 ppm of emulsifier in the soil is not exceeded. For production of further test concentrations, the mixture is diluted with water. 5 maize kernels in each case are sown into soil-filled pots (Zea mays) and, the next day, drenched with the active ingredient formulation of the desired concentration. After one day, about 25 L2 larvae of the banded cucumber beetle (Diabrotica balteata) were added. After 8 days, the efficacy in % is determined. 100% means that all 5 plants have germinated and grown; 0% means that no plant has emerged.
# Myzus persicae = Myzus persicae drench test (MYZUPE D), savoy cabbage plants; conditions: soil, 240 h, 0.16 ppm, 10 dat, read-out: % efficacy
# Method: [table] To produce an appropriate active ingredient formulation, 1 part by weight of active ingredient is mixed with the specified amounts of solvent and emulsifier and the concentrate is diluted to the desired concentration with water, it being necessary to take into account the volume of soil into which drenching is effected. It should be ensured that a concentration of 40 ppm of emulsifier in the soil is not exceeded. For production of further test concentrations, the mixture is diluted with water. Savoy cabbage plants (Brassica oleracea) in soil pots, infested by all stages of the green peach aphid (Myzus persicae), are drenched with an active ingredient formulation of the desired concentration. After the desired time, the efficacy in % is determined. 100% means that all the aphids have been killed; 0% means that no aphids have been killed.
# Nilaparvata lugens = Nilaparvata lugens spray test (NILALU); conditions: Nilaparvata lugens, 96 h, 4 g/ha, 4 dat, read-out: % efficacy
# How it was run: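 Rice plants (Oryza sativa) sprayed with compound formulated in solvent and water with 1000 ppm emulsifier, ammonium salts/penetrants at 1000 ppm if needed, then infested with brown planthopper larvae. After the set time, efficacy scored as % planthoppers killed (100% all, 0% none).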
# Spodoptera frugiperda = Spodoptera frugiperda spray test; conditions: 100 g/ha, after 6 days
# Method: [table] To produce a suitable active ingredient formulation, 1 part by weight of active ingredient is dissolved with the specified parts by weight of solvent and made up to the desired concentration with water containing an emulsifier concentration of 1000 ppm. To produce further test concentrations, the formulation is diluted with emulsifier-containing water. Leaf discs of maize (Zea mays) are sprayed with an active ingredient formulation of the desired concentration and, after drying, populated with caterpillars of the armyworm (Spodoptera frugiperda). After 6 days, the efficacy in % is determined. 100% means that all the caterpillars have been killed; 0% means that no caterpillar has been killed.
structure (smiles),measurement,setting,value
"CCS(=O)(=O)c1ccc(NC(=O)NC)nc1-c1nc2cc(C(F)(F)C(F)(F)F)nnc2n1C [Example I-08, 1-{5-(ethylsulfonyl)-6-[7-methyl-3-(pentafluoroethyl)-7H-imidazo[4,5-c]pyridazin-6-yl]pyridin-2-yl}-3-methylurea]",Emax at 20 ppm,Diabrotica balteata,100%
CCS(=O)(=O)c1ccc(N(C)C(=O)NC)nc1-c1nc2cc(C(F)(F)C(F)(F)F)nnc2n1C [Example I-09],Emax at 0.16 ppm,Myzus persicae,99%
CCS(=O)(=O)c1ccc(NC(=O)N(C)C)nc1-c1nc2cc(C(F)(F)C(F)(F)F)nnc2n1C [Example I-10],Emax at 4 g/ha,Nilaparvata lugens,90%
CCNC(=O)Nc1ccc(S(=O)(=O)CC)c(-c2nc3cc(C(F)(F)C(F)(F)F)nnc3n2C)n1 [Example I-13],efficacy,Spodoptera frugiperda,83%
